# According to PMC8041284, “Tunable Methacrylamides for Covalent Ligand Directed Release Chemistry” (Journal of the American Chemical Society, 2021):
# *1 amine or outer side, *2 acyl side, *3 side chain or, on linkers, in order; H or OH if unused. Where a SMILES comes first, the peptide text is derived from it. Bridges are numbered along the chain shown (N, C = ends). [ ]: non-standard residue; d: D form. The star is where a group is joined. hTyr(3S-OH,4S-OH,3'-OSO3H) = N[C@H](C(=O)O)[C@H](O)[C@@H](O)c1ccc(O)c(OS(=O)(=O)O)c1; Orn(4R-OH,5R-OH) = O=C([C@H](C[C@@H](O)[C@@H](O)N[*:3])N[*:1])[*:2]; Pro(3S-OH,4S-Me) = C[C@H]1CN[C@H](C(=O)O)[C@H]1O; X1 = CCCCCOc1ccc(-c2cc(-c3ccc(C(=O)*)cc3)no2)cc1; Gln(3R-OH) = NC(=O)C[C@@H](O)[C@H](N)C(=O)O; Hyp = O=C(O)[C@@H]1C[C@@H](O)CN1
# Target: BTK (Homo sapiens, UniProt Q06187)
# Assay: biochemical
# Details: read-out: BTK inhibition (%)
# BTK, sequence (Q06187 402-655 limits assumed): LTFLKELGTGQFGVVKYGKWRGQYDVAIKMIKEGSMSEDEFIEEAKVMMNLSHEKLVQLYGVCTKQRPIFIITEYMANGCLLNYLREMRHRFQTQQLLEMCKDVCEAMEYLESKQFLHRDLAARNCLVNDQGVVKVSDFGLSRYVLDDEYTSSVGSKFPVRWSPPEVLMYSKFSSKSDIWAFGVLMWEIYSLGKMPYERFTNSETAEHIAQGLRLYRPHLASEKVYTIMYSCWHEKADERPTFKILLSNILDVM
row,SMILES,inhibition at 10 µM [%]
1,COc1ccc(N(C(=O)Oc2c(C)cccc2C)c2ccnc(Nc3ccc(N4CCN(C)CC4)cc3)n2)c(OC)c1 [PCM-0215345],24.1

# Same assay, conditions: read-out: BTK inhibition (%), 0.75 uM BTK, […] probe 3l, 15 min preincubation
row,SMILES,inhibition at 10 µM [%]
1,Cc1cc(=O)oc2c(C=O)c(O)ccc12 [PCM-0215276],82.6
2,C=CC(=O)Nc1cccc(Nc2nc(Nc3ccc(Oc4ccnc(C(=O)NC)c4)cc3)ncc2F)c1 [PCM-0215277],115
3,O=C(c1cccc(Cl)c1F)N1CCN(Cc2cccc(Nc3nccs3)n2)CC1 [PCM-0215281],68.3
4,O=C(O)/C(Cc1ccccc1[N+](=O)[O-])=N/Nc1nc(-c2ccc(Cl)c(Cl)c2)cs1 [PCM-0215282],54.8
5,CCOC(=O)[C@H]1O[C@@H]1C(=O)N[C@@H](CC(C)C)C(=O)NCCC(C)C [PCM-0215286],14.7
6,Cc1ccc(Cl)cc1N(CC(=O)Nc1c(F)cccc1F)S(C)(=O)=O [PCM-0215291],0.8
7,CN(C)C(=O)c1ccc(S(=O)(=O)c2ccc(NC(=O)[C@@](C)(O)C(F)(F)F)c(Cl)c2)cc1 [PCM-0215295],3.1
8,Cc1ccc(CNc2ncnc3ccc(-c4ccc(CO)o4)cc23)o1 [PCM-0215296],6.9
9,COc1ccc(-c2cnc3c(-c4cccc5ncccc45)cnn3c2)cc1 [PCM-0215297],-2.3
10,CCNC(=O)c1[nH]nc(-c2cc(Cl)c(O)cc2O)c1-c1ccc(OC)cc1 [PCM-0215298],21.6
11,CC(C)Oc1ccc(-c2cnc3c(-c4ccnc5ccccc45)cnn3c2)cc1 [PCM-0215300],-1.5
12,COC(=O)CNC(=O)C(=O)OC [PCM-0215303],3.9
13,C=CC(=O)Nc1cc(Nc2nccc(-c3cn(C)c4ccccc34)n2)c(OC)cc1N(C)CCN(C)C [PCM-0215305],80.7
14,O=C(/C=C/c1ccc2ccccc2n1)c1ccncc1 [PCM-0215310],11.7
15,CC(C)Oc1ccc(C(=O)N[C@H](CNC(=O)CN(C)C)Cc2ccc(-c3cn4cccc([C@H](C)O)c4n3)cc2)cc1Cl [PCM-0215312],-30.9
16,Cc1c(-c2ccnn2C)cc(C(=O)NCc2ccc(S(C)(=O)=O)cn2)c(=O)n1-c1cccc(C(F)(F)F)c1 [PCM-0215318],-3.1
17,CCCCNc1ncc(C(=O)NCc2ccc(-n3ccnc3)cc2)c(NC2CCC(O)CC2)n1 (centres unmarked) [PCM-0215319],2.1
18,Cc1ccc(-c2csc(NC(=O)c3ccccc3)n2)c(C)c1 [PCM-0215320],60.2
19,CN1CCCN(C(=O)c2cccc(-c3ccc(/C=C4/C(=O)Nc5ccc(Cl)cc54)o3)c2)CC1 [PCM-0215321],26.9
20,CN1CCC(COc2cnc(-c3cccc(Cn4nc(-c5cccc(C#N)c5)ccc4=O)c3)nc2)CC1 [PCM-0215322],22.1
21,CC(C)C[C@H](CC(=O)NO)C(=O)N[C@@H](Cc1ccc2ccccc2c1)C(=O)N[C@@H](C)C(=O)NCCN [PCM-0215328],18.6
22,Cc1sc2c(c1C)C(c1ccc(Cl)cc1)=N[C@@H](CC(N)=O)c1nnc(C)n1-2 [PCM-0215329],-14.7
23,Cc1cc([N+](=O)[O-])ccc1NS(=O)(=O)c1cc(Cl)ccc1Cl [PCM-0215330],11.6
24,COc1ccc(C[C@H](N)C(=O)N[C@H]2[C@@H](O)[C@H](n3cnc4c(N(C)C)ncnc43)O[C@@H]2CO)cc1 [PCM-0215332],-3.1
25,CCNc1nc(Nc2cc(F)c(C(=O)N3CCOCC3)cc2OC)ncc1C(F)(F)F [PCM-0215337],-9
26,CSc1cccc(Nc2ncc3cc(-c4c(Cl)cccc4Cl)c(=O)n(C)c3n2)c1 [PCM-0215338],-18.6
27,CO[C@H]1C[C@@H]2CC[C@@H](C)[C@@](O)(O2)C(=O)C(=O)N2CCCC[C@H]2C(=O)O[C@H]([C@H](C)C[C@@H]2CC[C@H](n3cnnn3)[C@H](OC)C2)CC(=O)[C@H](C)/C=C(\C)[C@@H](O)[C@@H](OC)C(=O)[C@H](C)C[C@H](C)/C=C/C=C/C=C/1C [PCM-0215342],3.4
28,O=C(O)/C(S)=C/c1c[nH]c2ccc(F)cc12 [PCM-0215343],35.5
29,Cc1[nH]c2ccccc2c1C1=C(NCCc2ccc(F)cc2)C(=O)N(C)C1=O [PCM-0215349],51.7
30,c1ccc(Cn2c(-c3ccc(OC[C@H](C4CCNCC4)n4c(-c5ccccc5)nc5ccccc54)cc3)nc3ccccc32)cc1 [PCM-0215350],86.5

# Other lines, results leading:
row,inhibition at 10 µM [%],SMILES
1,1.5,Cc1cc(-c2ncc(CC(=O)Nc3ccc(-c4cnccn4)cn3)cc2C)ccn1 [PCM-0215274]
2,-8.5,O=C(CSc1nc2c(c(=O)n1-c1ccccc1)SCC2)Nc1ccc(-c2ccccc2)cn1 [PCM-0215278]
3,-33.2,O=C(COc1ccc(C(=O)c2ccccc2)cc1)NC1CCN(Cc2ccccc2)CC1 [PCM-0215280]
4,-7.7,CN(C)C(=O)c1cc2cnc(Nc3ccc(N4CCNCC4)cn3)nc2n1C1CCCC1 [PCM-0215283]
5,5.5,COc1cc2ncnc(Sc3nnc(C)s3)c2cc1OC [PCM-0215288]
6,-2.1,O=C1Cc2c([nH]c3ccc(Br)cc23)-c2ncccc2N1 [PCM-0215289]
7,-2.1,O=C(O)CC1CC(c2ccccc2)=NO1 (centres unmarked) [PCM-0215292]
8,-11.7,Cc1c(C(=O)Nc2ccc(N3CCC(N4CCOCC4)CC3)c(C#N)c2)cnn1-c1ccc(Cl)cc1 [PCM-0215293]
9,23.9,CCCCN(Cc1ccc(C(=O)NO)cc1)C(=O)Nc1ccccc1 [PCM-0215294]
10,-4.6,O=C(c1cn(Cc2cncn2Cc2ccc(Br)cc2)cc1-c1cccc2ccccc12)N1CCOCC1 [PCM-0215301]
11,-16.2,CC(C)CCNC(=O)[C@H](CC(C)C)NC(=O)[C@H]1O[C@@H]1C(=O)O [PCM-0215302]
12,-10.8,CN1CCC(NC(=O)c2cc(-c3c(O)cc(O)cc3Oc3ccc([N+](=O)[O-])cc3)on2)CC1 [PCM-0215304]
13,33.2,Cc1cc(N2CCOCC2)ccc1Nc1nc(NC2CCCCC2)c2[nH]cnc2n1 [PCM-0215306]
14,6,O=C1/C(=C/c2cccs2)CC/C1=C\c1cccs1 [PCM-0215307]
15,6.9,CC[C@@H]1/C=C(\C)C[C@H](C)C[C@H](OC)[C@H]2O[C@@](O)(C(=O)C(=O)N3CCCC[C@H]3C(=O)O[C@H](/C(C)=C/[C@@H]3CC[C@@H](O)[C@H](OC)C3)[C@H](C)[C@@H](O)CC1=O)[C@H](C)C[C@@H]2OC [PCM-0215308]
16,2.1,CN([C@@H](Cc1ccc(OS(=O)(=O)c2cccc3cnccc23)cc1)C(=O)N1CCN(c2ccccc2)CC1)S(=O)(=O)c1cccc2cnccc12 [PCM-0215309]
17,-4.1,CCOC(=O)c1cnc2ccc(-c3cncc(NS(=O)(=O)c4ccccc4)c3)cn12 [PCM-0215311]
18,-3.1,CC(NC(=O)[C@H](Cc1ccccc1)NC(=O)OCc1ccccc1)C(=O)CF (some centres unmarked) [PCM-0215313]
19,-27.8,CC(=O)OCOC(=O)CN(CC(=O)OCOC(C)=O)c1ccccc1OCCOc1ccccc1N(CC(=O)OCOC(C)=O)CC(=O)OCOC(C)=O [PCM-0215314]
20,-9.3,COc1ccc(-n2c(SCCCN3C(=O)c4cccc5cccc(c45)C3=O)nnc2-c2ccncc2)cc1 [PCM-0215315]

row,inhibition at 10 µM [%],SMILES
1,-4.6,O=C(O)c1ccc(O)c2ncccc12 [PCM-0215316]
2,11.6,CCNC(=O)c1noc(-c2cc(Cl)c(O)cc2O)c1-c1ccc(OC)cc1 [PCM-0215317]
3,0,CCn1cc(NC(=S)Nc2cc(Cl)ccc2OC)c(C(N)=O)n1 [PCM-0215323]
4,10.2,Cc1ccc2nc(NC(=O)CSc3nc4c(c(=O)n3-c3ccccc3)SCC4)sc2c1 [PCM-0215324]
5,-16.2,CCCc1ccc(OCC(=O)N(Cc2nc(-c3cccnc3)no2)C(C)C)cc1 [PCM-0215326]
6,106,COCCOc1nc(-c2ccc(Cl)c(Cl)c2)n(-c2ccc(NC(=O)CCl)cc2)n1 [PCM-0215327]
7,9.3,CC(=O)N[C@@H](CC(C)C)C(=O)N[C@@H](CC(C)C)C(=O)N[C@H](C=O)CCCN=C(N)N [PCM-0215331]
8,-9.3,O=C(NCC1(c2nc(-c3ccccc3)cs2)CCOCC1)c1cccc(-c2noc(C(F)(F)F)n2)c1 [PCM-0215333]
9,0.8,Cc1nc(N(C)C(=O)Cc2ccc(-c3ccccn3)cc2)sc1S(N)(=O)=O [PCM-0215334]
10,-0.9,O=c1[nH]c([C@@H]2CCCN2)nc2c1oc1ccc(Cl)cc12 [PCM-0215335]
11,-13.1,Cc1cc(C)c(S(=O)(=O)n2cc(C)cc2C)c(C)c1 [PCM-0215336]
12,-1.5,Cc1cc(-c2nc(-c3ccc(OC(F)(F)F)cc3)no2)nn1Cc1ccnc(N2CCN(C3CC3)CC2)c1 [PCM-0215339]
13,6.2,C=CS(=O)(=O)NC1CCN(C(=O)CNc2cc(I)c(Cl)cc2OC)CC1 [PCM-0215340]
14,3.4,"CCCCCOc1ccc(-c2cc(-c3ccc(C(=O)N[C@H]4C[C@@H](O)[C@@H](O)NC(=O)[C@@H]5[C@@H](O)[C@@H](C)CN5C(=O)[C@H]([C@H](O)CC(N)=O)NC(=O)[C@H]([C@H](O)[C@@H](O)c5ccc(O)c(OS(=O)(=O)O)c5)NC(=O)[C@@H]5C[C@@H](O)CN5C(=O)[C@H]([C@@H](C)O)NC4=O)cc3)no2)cc1 [PCM-0215341] (X1-[Orn(4R-OH,5R-OH)]T[Hyp][hTyr(3S-OH,4S-OH,3'-OSO3H)][Gln(3R-OH)][Pro(3S-OH,4S-Me)]; lactam 1-C)"
15,5.5,Cn1c2ccccc2c2c3c(c4c5ccccc5n(CCC#N)c4c21)CNC3=O [PCM-0215344]
16,6.9,Cc1cc(C(N)=O)ccc1-n1c(CCC(=O)O)ccc1-c1ccc(-n2ccnc2)cc1 [PCM-0215346]
17,14.7,CC(C)C[C@H](NP(=O)(O)O[C@@H]1O[C@@H](C)[C@H](O)[C@@H](O)[C@H]1O)C(=O)N[C@@H](Cc1c[nH]c2ccccc12)C(=O)O [PCM-0215347]
18,10.8,CC(C)(C)C(=O)Nc1ccc2c(c1)C(=O)C(=O)c1ccccc1-2 [PCM-0215348]
19,10.8,Cc1cc(/C=C2/SC(=S)NC2=O)c(C)n1-c1cccnc1 [PCM-0215351]
20,2.3,COc1cccc(-c2cc(F)ccc2[C@H]2Cc3nc(N)nc(C)c3C(=O)N2)n1 [PCM-0215352]
